Several values for one entry are separate records, joined by “and”; a condition that tells them apart may be missing. Equal entries are not always repeated.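 Interpolation was linear, between the two tested concentrations surrounding the appropriate level; five concentrations were tested over 48 hours in 96-well plates. GI50: concentration for 50% inhibition of growth. The concentration for full growth arrest is given as TGI.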
How the values were obtained:
Test in all cases: growth of human tumour cells (NCI), 48 h
M14 melanoma = system: M14 melanoma
SF-295 CNS = system: SF-295 CNS
RXF 393 renal = system: RXF 393 renal
RPMI-8226 leukemia = system: RPMI-8226 leukemia
HCT-116 colon = system: HCT-116 colon
T-47D breast = system: T-47D breast
BT-549 breast = system: BT-549 breast
EKVX NSCLC = system: EKVX NSCLC
HL-60(TB) leukemia = system: HL-60(TB) leukemia
OVCAR-4 ovarian = system: OVCAR-4 ovarian

Row | Compound | TGI (M14 melanoma) [µM] | TGI (SF-295 CNS) [µM] | TGI (RXF 393 renal) [µM] | TGI (RPMI-8226 leukemia) | TGI (HCT-116 colon) [µM] | TGI (T-47D breast) [µM] | TGI (BT-549 breast) [µM] | TGI (EKVX NSCLC) [µM] | TGI (HL-60(TB) leukemia) [µM] | TGI (OVCAR-4 ovarian) | GI50 (M14 melanoma) [µM] | GI50 (SF-295 CNS) | GI50 (RXF 393 renal) | GI50 (RPMI-8226 leukemia) [µM] | GI50 (HCT-116 colon) [µM] | GI50 (EKVX NSCLC) | GI50 (HL-60(TB) leukemia) [µM] | GI50 (OVCAR-4 ovarian) [µM]
1 | S=C1NCCN1C(=S)NC1CCCCC1 | 51.2 | > 100 | 28.6 | > 100 µM | > 100 | > 100 | 60.9 | > 100 | 96.7 | 45.5 µM | – | – | – | – | – | – | – | –
2 | Nc1cccc(/C=C/CN2CCN(CCOC(c3ccccc3)c3ccccc3)CC2)c1 | 25.9 | 31.4 | 25.5 | 15.2 µM | 25.4 | 26 | 29.9 | 32 | 22.9 | 27.7 µM | – | – | – | – | – | – | – | –
3 | C[C@]12CC[C@H]3[C@@H](CC=C4C[C@@H](O)CC[C@@]43C)[C@@H]1C[C@H](N1CCOCC1)[C@@H]2O | > 100 | > 100 | > 100 | > 100 µM | > 100 | > 100 | > 100 | > 100 | > 100 | > 100 µM | – | – | – | – | – | – | – | –
4 | N#CC12CC=C(c3ccccc3)N=C1NC(c1ccccc1)=CC2 (stereo unspecified) | > 100 | > 100 | > 100 | 73.8 µM | > 100 | > 100 | > 100 | > 100 | 50.5 | > 100 µM | – | – | – | – | – | – | – | –
5 | CC(=O)C1=C(C)N(c2ccc(C)cc2)C2(O)C=CC(=O)C3=C(O)c4ccccc4C(=O)C312 (stereo unspecified) | > 100 | 43.3 | > 100 | > 100 µM | > 100 | > 100 | 38.9 | 61.2 | > 100 | 36 µM | – | – | – | – | – | – | – | –
6 | CCCC1=NC(C(F)(F)F)(C(F)(F)F)N=C(N2CCOCC2)O1 | > 100 | > 100 | > 100 | > 100 µM | > 100 | > 100 | > 100 | > 100 | > 100 | > 100 µM | – | – | – | – | – | – | – | –
7 | CCCC(=O)n1[nH]c(=O)n(C(C)(C)C)c1=O | > 100 | > 100 | > 100 | > 100 µM | > 100 | > 100 | > 100 | > 100 | > 100 | > 100 µM | – | – | – | – | – | – | – | –
8 | Nc1ncnc2c1ccn2CC=C(CO)CO | > 100 | > 100 | > 100 | > 100 µM | > 100 | > 100 | > 100 | > 100 | > 100 | > 100 µM | – | – | – | – | – | – | – | –
9 | Cn1c2c(c3ccccc31)CC(=O)N1CCCC(C1)CC21OCCO1 (stereo unspecified) | > 100 | > 100 | > 100 | > 100 µM | > 100 | > 100 | > 100 | > 100 | > 100 | > 100 µM | – | – | – | – | – | – | – | –
10 | Oc1ccc(NCc2cc(O)ccc2O)cc1 | 33.9 | 38.3 | 28.8 | 44.4 µM | 35.8 | 52.1 | 25.8 | 31.2 | 11.7 | 30.7 µM | – | – | – | – | – | – | – | –
11 | CC(=O)O[C@@H]1[C@@H](C)[C@]2(CC(c3ccoc3)OC2O)C2CCC3O[C@]3(C)[C@]2(C)[C@@H]1OC(C)=O (stereo partly specified) | > 100 | > 100 | > 100 | 60.7 µM | > 100 | 86.8 | 63.1 | > 100 | 48.7 | > 100 µM | – | – | – | – | – | – | – | –
12 | [O-]/N=N\c1on[n+](CCc2ccccc2)c1Cc1c(/N=N/[O-])on[n+]1CCc1ccccc1 | > 100 | 74.2 | > 100 | > 100 µM | > 100 | > 100 | 78.1 | > 100 | > 100 | 36.7 µM | – | – | – | – | – | – | – | –
13 | COc1cccc2c1C(=O)c1c(O)c3c(c(O)c1C2=O)C[C@@](O)(C(C)=O)C[C@@H]3OC1CC(N(C)C)C(O)C(C)O1 (stereo partly specified) | – | – | – | 0.23 µM and 1.92 µM | – | 0.00329 | 0.00562 | – | – | 0.52 µM and 0.977 µM | 0.0437 | 0.0188 µM and 0.0254 µM | 0.0487 µM and < 0.0151 µM | < 0.0159 | 0.00225 | 0.126 µM and 0.0588 µM | 0.0402 | < 0.0164
14 | O=CNNC(=O)CSc1nc2ccc(I)cc2c(=O)n1Cc1ccccc1 | > 100 | > 100 | 81.4 | 23.8 µM | 49.5 | > 100 | 99 | 69.7 | 89.7 | > 100 µM | – | – | – | – | – | – | – | –
15 | c1ccc2c(c1)ncn2CCn1ccnc1 | > 100 | > 100 | > 100 | > 100 µM | – | > 100 | > 100 | > 100 | > 100 | > 100 µM | – | – | – | – | – | – | – | –

Reference: PubChem BioAssay (NCI)
